Source: patent US20260123631A1, “NATURAL PORPHIN SALT AND USE THEREOF AS PLANT GROWTH REGULATOR AND PLANT IMMUNITY INDUCER” (NANJING BOSTEC BIOLOGICAL ENGINEERING CO., LTD, priority 2022, published 2026)

Legend:
[1] = Water solubility of the prepared salts; type: physicochemical
[2] = Stability of sample solutions in the dark/under light; type: physicochemical; conditions: under light 30,000 lux, salts in water, acidic reference in 30% to 50% ethanol
Protocol: Determination: An appropriate amount of a salt sample was taken, dissolved with water, and diluted to prepare a test solution with a concentration of about 10 ppm. An acidic reference substance (extremely-insoluble in water) was prepared with a 30% to 50% ethanol aqueous solution into a test solution with a concentration of about 10 ppm.
Each test solution was scanned by an ultraviolet spectrophotometer (at 0 h) for absorbance in a range of 200 nm to 800 nm immediately after being prepared. Then a test solution of each sample was divided into two parts. One part was placed at room temperature of 25° C. in the dark, and the other part was placed under light with a light intensity of 30,000 lux. At 1 h, 2 h, and 3 h, a solution sample was collected and scanned for absorbance respectively.
An absorbance value of a maximum absorption peak at 0 h (starting) of each test solution was set as a relative content of 100%, and a ratio of an absorbance value at each time point to the absorbance value at 0 h was calculated to determine a relative content, %.

Row | solubility in water [1] | Relative content ([2]; 1 h) | Relative content ([2]; 2 h) | Relative content ([2]; 3 h) | Molecule
1 | – | 80.48% | 67.53% | 67.13% | magnesium iron hydroxychlorophyllin [Example 74]
2 | – | 96.74% | 93.78% | 93.33% | magnesium hydroxyhematin [Example 64]
3 | slightly soluble | – | – | – | ferric iron chlorin [Example 26]
4 | slightly soluble | – | – | – | ferric chlorin [Example 58]
5 | slightly soluble | 79.89% | 76.11% | 73.21% | copper iron hydroxychlorophyllin [Example 80]
6 | slightly soluble | – | – | – | ferric iron hydroxychlorophyllin [Example 77]
7 | slightly soluble | 94.32% | 93.24% | 90.85% | zinc hydroxyhematin [Example 69]
8 | slightly soluble | 73.29% | 69.57% | 65.55% | zinc iron hydroxychlorophyllin [Example 79]
9 | slightly soluble | 75.51% | 70.44% | 68.12% | manganese iron hydroxychlorophyllin [Example 78]
10 | easily soluble | 62.96% | 54.32% | 49.38% | potassium iron hydroxychlorophyllin [Example 71]
11 | slightly soluble | – | – | – | ferrous chlorin [Example 57]
12 | slightly soluble | – | – | – | ferric iron chlorophyllin [Example 33]
13 | slightly soluble | – | – | – | ferric chlorhematin [Example 17]
14 | slightly soluble | 93.45% | 93.10% | 92.74% | C=CC1=C(C)c2cc3[n-]c(cc4nc(cc5[n-]c(cc1n2)c(C)c5CCC(=O)[O-])C(CCC(=O)[O-])=C4C)c(C)c3C=C.[Cl-].[Fe+3].[Zn+2] [Example 18, zinc chlorhematin]
15 | slightly soluble | – | – | – | ferric protoporphyrin [Example 7]
16 | slightly soluble | – | – | – | ferrous iron chlorophyllin [Example 32]
17 | slightly soluble | – | – | – | ferrous iron hydroxychlorophyllin [Example 76]
18 | slightly soluble | – | – | – | ferric zinc chlorophyllin [Example 39]
19 | easily soluble | 77.06% | 75.72% | 73.04% | potassium hydroxyhematin [Example 62]
20 | slightly soluble | 87.45% | 83.77% | 80.00% | manganese hydroxyhematin [Example 66]
21 | slightly soluble | 96.20% | 95.71% | 92.81% | copper hydroxyhematin [Example 70]
22 | slightly soluble | – | – | – | ferrous zinc chlorophyllin [Example 38]
23 | slightly soluble | – | – | – | C=CC1=C(C)c2cc3[n-]c(cc4nc(cc5[n-]c(cc1n2)c(C)c5CCC(=O)[O-])C(CCC(=O)[O-])=C4C)c(C)c3C=C.[Cl-].[Fe+2].[Fe+3] [Example 16, ferrous chlorhematin]
24 | slightly soluble | – | – | – | ferrous iron chlorin [Example 25]
25 | slightly soluble | – | – | – | ferrous hydroxyhematin [Example 67]
26 | easily soluble | 60.39% | 52.14% | 47.32% | sodium iron hydroxychlorophyllin [Example 72]
27 | slightly soluble | – | – | – | ferric hydroxyhematin [Example 68]
28 | slightly soluble | 95.23% | 95.03% | 93.04% | C=CC1=C(C)c2cc3[n-]c(cc4nc(cc5[n-]c(cc1n2)c(C)c5CCC(=O)[O-])C(CCC(=O)[O-])=C4C)c(C)c3C=C.[Cl-].[Cu+2].[Fe+3] [Example 19, copper chlorhematin]
29 | slightly soluble | – | – | – | ferric copper chlorophyllin [Example 49]
30 | slightly soluble | – | – | – | ferrous copper chlorophyllin [Example 48]

Row | Molecule | solubility in water [1] | Relative content ([2]; 1 h) | Relative content ([2]; 2 h) | Relative content ([2]; 3 h)
31 | C=CC1=C(C)c2cc3[n-]c(cc4nc(cc5[n-]c(cc1n2)c(C)c5C=C)C(C)=C4CCC(=O)[O-])c(CCC(=O)[O-])c3C.[Cl-].[Fe+3].[NH4+].[NH4+] [Example 12, ammonium chlorhematin] | easily soluble | 73.07% | 67.80% | 66.25%
32 | C=CC1=C(C)c2cc3[nH]c(cc4nc(cc5[nH]c(cc1n2)c(C)c5C=C)C(C)=C4CCC(=O)O)c(CCC(=O)O)c3C.N.N [Example 2, ammonium protoporphyrin] | easily soluble | 60.29% | 48.76% | 45.99%
33 | C=CC1=C(C)c2cc3[n-]c(cc4nc(cc5[n-]c(cc1n2)c(C)c5C=C)C(C)=C4CCC(=O)O)c(CCC(=O)O)c3C.[Zn+2] [Example 8, zinc protoporphyrin] | slightly soluble | 90.95% | 89.52% | 86.51%
34 | C=CC1=C(C)c2cc3[n-]c(cc4nc(cc5[n-]c(cc1n2)c(C)c5C=C)C(C)=C4CCC(=O)[O-])c(CCC(=O)[O-])c3C.[Cl-].[Fe+3].[Mn+2] [Example 15, manganese chlorhematin] | slightly soluble | – | 82.32% | 81.07%
35 | C=CC1=C(C)c2cc3[n-]c(cc4nc(cc5[n-]c(cc1n2)c(C)c5C=C)C(C)=C4CCC(=O)[O-])c(CCC(=O)[O-])c3C.[Ca+2].[Cl-].[Fe+3] [Example 14, calcium chlorhematin] | soluble | 82.53% | 81.78% | 81.97%
36 | magnesium protoporphyrin [Example 3] | soluble | 93.32% | 90.98% | 89.65%
37 | C=CC1=C(C)c2cc3[n-]c(cc4nc(cc5[n-]c(cc1n2)c(C)c5C=C)C(C)=C4CCC(=O)[O-])c(CCC(=O)[O-])c3C.[Fe+3].[Na+].[Na+].[OH-] [Sodium hydroxyhematin, sodium hydroxyhematin, reference compound] | easily soluble | 70.21% | 62.33% | 57.03%
38 | C=CC1=C(C)c2cc3[n-]c(cc4[n-]c(cc5nc(cc1n2)C(C)=C5C=C)c(C)c4CCC(=O)O)c(CCC(=O)O)c3C.[Fe+2] [Example 6, ferrous protoporphyrin] | soluble | – | – | –
39 | C=CC1=C(C)c2cc3[nH]c(cc4nc(cc5[nH]c(cc1n2)c(C)c5C=C)C(C)=C4CCC(=O)[O-])c(CCC(=O)[O-])c3C.[Mn+2] [Example 5, manganese protoporphyrin] | soluble | 92.57% | 90.09% | 88.85%
40 | C=CC1=C(C)c2cc3[nH]c(cc4nc(cc5[nH]c(cc1n2)c(C)c5C=C)C(C)=C4CCC(=O)[O-])c(CCC(=O)[O-])c3C.[Cu+2] [Example 9, copper protoporphyrin] | slightly soluble | 96.42% | 95.56% | 94.88%
41 | C=CC1=C(C)c2cc3[nH]c(cc4nc(cc5[nH]c(cc1n2)c(C)c5C=C)C(C)=C4CCC(=O)[O-])c(CCC(=O)[O-])c3C.[Ca+2] [Example 4, calcium protoporphyrin] | soluble | 90.07% | 87.11% | 85.89%
